From article PMC4506520, “Aneuploidy generates proteotoxic stress and DNA damage concurrently with p53-mediated post-mitotic apoptosis in SAC-impaired cells” (Nature Communications, 2015)

Target: T1, CENP-E (Homo sapiens, UniProt Q02224)
T1 construct: gene CENPE; motor domain
T1 sequence (Q02224 6-329 limits assumed): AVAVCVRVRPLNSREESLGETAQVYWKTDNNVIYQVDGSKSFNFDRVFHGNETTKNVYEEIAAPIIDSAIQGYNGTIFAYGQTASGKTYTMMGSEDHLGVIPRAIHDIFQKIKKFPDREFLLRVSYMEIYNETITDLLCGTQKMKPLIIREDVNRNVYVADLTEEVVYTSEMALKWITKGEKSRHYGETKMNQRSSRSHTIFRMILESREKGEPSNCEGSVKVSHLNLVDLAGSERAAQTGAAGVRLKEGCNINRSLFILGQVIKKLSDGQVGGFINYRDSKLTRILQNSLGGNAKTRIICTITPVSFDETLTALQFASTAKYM
Experiment: ATPase activity assay of the CENP-E motor domain
Format: biochemical

`COc1cccc2nc(C(=O)N(CCN(C)C)C3CS(=O)(=O)c4c3ccc(C(F)(F)F)c4C#N)c(-c3ccc(F)c(C)c3)n12` (single isomer, unassigned; (+)) [Cmpd-A, (+)-N-[7-cyano-1,1-dioxido-6-(trifluoromethyl)-2,3-dihydro-1-benzothiophen-3-yl]-N-[2-(dimethylamino)ethyl]-3-(4-fluoro-3-methylphenyl)-5-methoxyimidazo[1,2-a]pyridine-2-carboxamide] was tested, and the IC50 was 2.2 nM.
